Assay results from ChEMBL document CHEMBL3046161, “Synthesis of potential antitubercular and antimicrobial s-triazine-based scaffolds via Suzuki cross-coupling reaction” (2013).
Converted amounts (≈) assume the structure as drawn.

Legend:
Format in all cases: functional
[1] = test system: Aspergillus clavatus; assay: Antifungal activity against Aspergillus clavatus MTCC 1323 assessed as growth inhibition at 3.12 to 50 ug/mL after 24 hr by agar disk diffusion method
[2] = test system: Bacillus cereus; assay: Antibacterial activity against Bacillus cereus MTCC 430 assessed as growth inhibition at 3.12 to 50 ug/mL after 24 hr by agar disk diffusion method
[3] = test system: Mycobacterium tuberculosis; assay: Antimycobacterial activity against Mycobacterium tuberculosis H37Rv assessed as growth inhibition at MIC after 12 to 28 days by Lowenstein and Jensen agar dilution method
[4] = test system: Pseudomonas aeruginosa; assay: Antibacterial activity against Pseudomonas aeruginosa MTCC 741 assessed as growth inhibition at 3.12 to 50 ug/mL after 24 hr by agar disk diffusion method
[5] = test system: Escherichia coli; assay: Antibacterial activity against Escherichia coli MTCC 739 assessed as growth inhibition after 24 hr by agar streak dilution method; details: MTCC 739, 24 h
[6] = test system: Klebsiella pneumoniae; assay: Antibacterial activity against Klebsiella pneumoniae MTCC 109 assessed as growth inhibition at 3.12 to 50 ug/mL after 24 hr by agar disk diffusion method
[7] = test system: Aspergillus clavatus; assay: Antifungal activity against Aspergillus clavatus MTCC 1323 assessed as growth inhibition after 48 hr by agar streak dilution method; details: MTCC 1323, 48 h
[8] = test system: Candida albicans; assay: Antifungal activity against Candida albicans MTCC 183 assessed as growth inhibition at 3.12 to 50 ug/mL after 24 hr by agar disk diffusion method
[9] = test system: Escherichia coli; assay: Antibacterial activity against Escherichia coli MTCC 739 assessed as growth inhibition at 3.12 to 50 ug/mL after 24 hr by agar disk diffusion method
[10] = test system: Aspergillus fumigatus; assay: Antifungal activity against Aspergillus fumigatus MTCC 343 assessed as growth inhibition at 3.12 to 50 ug/mL after 24 hr by agar disk diffusion method
[11] = test system: Aspergillus niger; assay: Antifungal activity against Aspergillus niger MTCC 282 assessed as growth inhibition after 48 hr by agar streak dilution method; details: MTCC 282, 48 h
[12] = test system: Staphylococcus aureus; assay: Antibacterial activity against Staphylococcus aureus MTCC 96 assessed as growth inhibition after 24 hr by agar streak dilution method; details: MTCC 96, 24 h
[13] = test system: Proteus vulgaris; assay: Antibacterial activity against Proteus vulgaris MTCC 1771 assessed as growth inhibition after 24 hr by agar streak dilution method; details: MTCC 1771, 24 h
[14] = test system: Salmonella typhi; assay: Antibacterial activity against Salmonella enterica subsp. enterica serovar Typhi MTCC 733 assessed as growth inhibition at 3.12 to 50 ug/mL after 24 hr by agar disk diffusion method
[15] = test system: Pseudomonas aeruginosa; assay: Antibacterial activity against Pseudomonas aeruginosa MTCC 741 assessed as growth inhibition after 24 hr by agar streak dilution method; details: MTCC 741, 24 h
[16] = test system: Mycobacterium tuberculosis; assay: Antimycobacterial activity against Mycobacterium tuberculosis H37Rv assessed as growth inhibition at MIC measured within 10 days by BACTEC MGIT method
[17] = test system: Bacillus cereus; assay: Antibacterial activity against Bacillus cereus MTCC 430 assessed as growth inhibition after 24 hr by agar streak dilution method; details: MTCC 430, 24 h
[18] = test system: Candida albicans; assay: Antifungal activity against Candida albicans MTCC 183 assessed as growth inhibition after 48 hr by agar streak dilution method; details: MTCC 183, 48 h
[19] = test system: Mycobacterium tuberculosis; assay: Antimycobacterial activity against Mycobacterium tuberculosis H37Rv assessed as growth inhibition after 12 to 28 days by Lowenstein and Jensen agar dilution method
[20] = test system: Salmonella typhi; assay: Antibacterial activity against Salmonella enterica subsp. enterica serovar Typhi MTCC 733 assessed as growth inhibition after 24 hr by agar streak dilution method; details: MTCC 733, 24 h
[21] = test system: Aspergillus niger; assay: Antifungal activity against Aspergillus niger MTCC 282 assessed as growth inhibition at 3.12 to 50 ug/mL after 24 hr by agar disk diffusion method
[22] = test system: Proteus vulgaris; assay: Antibacterial activity against Proteus vulgaris MTCC 1771 assessed as growth inhibition at 3.12 to 50 ug/mL after 24 hr by agar disk diffusion method
[23] = test system: Staphylococcus aureus; assay: Antibacterial activity against Staphylococcus aureus MTCC 96 assessed as growth inhibition at 3.12 to 50 ug/mL after 24 hr by agar disk diffusion method
[24] = test system: Shigella flexneri; assay: Antibacterial activity against Shigella flexneri MTCC 1457 assessed as growth inhibition at 3.12 to 50 ug/mL after 24 hr by agar disk diffusion method
[25] = test system: Klebsiella pneumoniae; assay: Antibacterial activity against Klebsiella pneumoniae MTCC 109 assessed as growth inhibition after 24 hr by agar streak dilution method; details: MTCC 109, 24 h
[26] = test system: Aspergillus fumigatus; assay: Antifungal activity against Aspergillus fumigatus MTCC 343 assessed as growth inhibition after 48 hr by agar streak dilution method; details: MTCC 343, 48 h
[27] = test system: Mycobacterium tuberculosis; assay: Antimycobacterial activity against Mycobacterium tuberculosis H37Rv assessed as growth inhibition measured within 10 days by BACTEC MGIT method; details: 240 h
[28] = test system: Shigella flexneri; assay: Antibacterial activity against Shigella flexneri MTCC 1457 assessed as growth inhibition after 24 hr by agar streak dilution method; details: MTCC 1457, 24 h

SMILES | inhibition zone (IZ) [1] | inhibition zone (IZ) [2] | growth inhibition (GI) [3] | inhibition zone (IZ) [4] | MIC [5] | inhibition zone (IZ) [6] | MIC [7] | inhibition zone (IZ) [8] | inhibition zone (IZ) [9] | inhibition zone (IZ) [10] | MIC [11] | MIC [12] | MIC [13] | inhibition zone (IZ) [14] | MIC [15] | MIC [17] | MIC [18] | MIC [19] | MIC [20] | inhibition zone (IZ) [21] | other results
CCOc1ccc2nc(NC(=O)CNc3ccc(-c4nc(N5CC(C)CC(C)C5)nc(N5CC(C)CC(C)C5)n4)cc3)sc2c1 (stereo not drawn) | 16 mm | 24 mm | 99% | 23 mm | 12.5 µg/mL (≈ 19.9 µM) | 24 mm | 50 µg/mL (≈ 79.5 µM) | 25 mm | 23 mm | 16 mm | 25 µg/mL (≈ 39.8 µM) | 6.25 µg/mL (≈ 9.94 µM) | 12.5 µg/mL (≈ 19.9 µM) | 19 mm | 12.5 µg/mL (≈ 19.9 µM) | 25 µg/mL (≈ 39.8 µM) | 12.5 µg/mL (≈ 19.9 µM) | 6.25 µg/mL (≈ 9.94 µM) | 50 µg/mL (≈ 79.5 µM) | 20 mm | growth inhibition (GI) [16]: 99%; inhibition zone (IZ) [22]: 26 mm; inhibition zone (IZ) [23]: 23 mm; inhibition zone (IZ) [24]: 17 mm; MIC [25]: 50 µg/mL (≈ 79.5 µM); MIC [26]: 50 µg/mL (≈ 79.5 µM); MIC [27]: 6.25 µg/mL (≈ 9.94 µM); MIC [28]: 50 µg/mL (≈ 79.5 µM)
CC1CC(C)CN(c2nc(-c3ccc(NCC(=O)Nc4nc5ccc(F)cc5s4)cc3)nc(N3CC(C)CC(C)C3)n2)C1 (stereo not drawn) | 25 mm | 28 mm | 99% | 25 mm | 25 µg/mL (≈ 41.5 µM) | 25 mm | 50 µg/mL (≈ 82.9 µM) | 23 mm | 20 mm | 25 mm | 12.5 µg/mL (≈ 20.7 µM) | 3.12 µg/mL (≈ 5.18 µM) | 25 µg/mL (≈ 41.5 µM) | 23 mm | 25 µg/mL (≈ 41.5 µM) | 3.12 µg/mL (≈ 5.18 µM) | 50 µg/mL (≈ 82.9 µM) | 3.12 µg/mL (≈ 5.18 µM) | 12.5 µg/mL (≈ 20.7 µM) | 22 mm | growth inhibition (GI) [16]: 99%; inhibition zone (IZ) [22]: 25 mm; inhibition zone (IZ) [23]: 25 mm; inhibition zone (IZ) [24]: 26 mm; MIC [25]: 25 µg/mL (≈ 41.5 µM); MIC [26]: 25 µg/mL (≈ 41.5 µM); MIC [27]: 6.25 µg/mL (≈ 10.4 µM); MIC [28]: 6.25 µg/mL (≈ 10.4 µM)
CC1CC(C)CN(c2nc(-c3ccc(NCC(=O)Nc4ccccc4)cc3)nc(N3CC(C)CC(C)C3)n2)C1 (stereo not drawn) | <10 mm | 12 mm | 95% | 19 mm | 50 µg/mL (≈ 94.7 µM) | <10 mm | > 50 µg/mL | <10 mm | <10 mm | <10 mm | 50 µg/mL (≈ 94.7 µM) | 50 µg/mL (≈ 94.7 µM) | 50 µg/mL (≈ 94.7 µM) | <10 mm | 50 µg/mL (≈ 94.7 µM) | 50 µg/mL (≈ 94.7 µM) | > 50 µg/mL | 250 µg/mL (≈ 474 µM) | 50 µg/mL (≈ 94.7 µM) | <10 mm | inhibition zone (IZ) [22]: 14 mm; inhibition zone (IZ) [23]: 11 mm; inhibition zone (IZ) [24]: <10 mm; MIC [25]: 50 µg/mL (≈ 94.7 µM); MIC [26]: 50 µg/mL (≈ 94.7 µM); MIC [27]: > 6.25 µg/mL; MIC [28]: 50 µg/mL (≈ 94.7 µM)
CC1CC(C)CN(c2nc(-c3ccc(NCC(=O)Nc4ccc(Cl)cc4)cc3)nc(N3CC(C)CC(C)C3)n2)C1 (stereo not drawn) | <10 mm | 13 mm | 98% | 26 mm | 50 µg/mL (≈ 88.9 µM) | 21 mm | > 50 µg/mL | <10 mm | 12 mm | 14 mm | 50 µg/mL (≈ 88.9 µM) | 25 µg/mL (≈ 44.5 µM) | 50 µg/mL (≈ 88.9 µM) | 18 mm | 25 µg/mL (≈ 44.5 µM) | 50 µg/mL (≈ 88.9 µM) | > 50 µg/mL | 25 µg/mL (≈ 44.5 µM) | 50 µg/mL (≈ 88.9 µM) | <10 mm | inhibition zone (IZ) [22]: 21 mm; inhibition zone (IZ) [23]: 18 mm; inhibition zone (IZ) [24]: 24 mm; MIC [25]: 50 µg/mL (≈ 88.9 µM); MIC [26]: 50 µg/mL (≈ 88.9 µM); MIC [27]: > 6.25 µg/mL; MIC [28]: 12.5 µg/mL (≈ 22.2 µM)
CC1CC(C)CN(c2nc(-c3ccc(NCC(=O)Nc4ccc(Br)cc4)cc3)nc(N3CC(C)CC(C)C3)n2)C1 (stereo not drawn) | 25 mm | 27 mm | 99% | 27 mm | 25 µg/mL (≈ 41.2 µM) | 24 mm | 50 µg/mL (≈ 82.4 µM) | 13 mm | 19 mm | 23 mm | 50 µg/mL (≈ 82.4 µM) | 3.12 µg/mL (≈ 5.14 µM) | 50 µg/mL (≈ 82.4 µM) | 20 mm | 12.5 µg/mL (≈ 20.6 µM) | 6.25 µg/mL (≈ 10.3 µM) | 50 µg/mL (≈ 82.4 µM) | 3.12 µg/mL (≈ 5.14 µM) | 25 µg/mL (≈ 41.2 µM) | 12 mm | growth inhibition (GI) [16]: 99%; inhibition zone (IZ) [22]: 13 mm; inhibition zone (IZ) [23]: 24 mm; inhibition zone (IZ) [24]: 22 mm; MIC [25]: 25 µg/mL (≈ 41.2 µM); MIC [26]: 50 µg/mL (≈ 82.4 µM); MIC [27]: 6.25 µg/mL (≈ 10.3 µM); MIC [28]: 12.5 µg/mL (≈ 20.6 µM)
